Measurements: patent publication US20230358677A1, “Reversible Excited-State Photoacids and Photobases as Dynamic Fluorescence Sensors of Protonic Species” (California Institute of Technology, priority 2022, published 2023)

Experiments:
[1] = Acid-base titrations of NS—NH2 in the presence of proton-accepting quenchers (modified Stern-Volmer, Equation 7); conditions: for KSV,OH−: Equation 7; for pKa: pKa,BH+ (Equation 7)
Text: Assuming that photoluminescence quenching occurs by ESPT from NS—NH2* to OH^−(aq), the data support that when aOH− is small (i.e. at pH less than about 12), ESPT can be quite slow compared to the excited-state lifetime of NS—NH2*, due to mass action (FIG. 2B). The non-unity quantum yield for ESPT in weakly alkaline aqueous solutions afforded us an opportunity to evaluate a series of aqueous proton-accepting quenchers (glycine (Gly(aq)), proline (Pro(aq)), and trifluoroethanol (TFE(aq))) for their ability to undergo ESPT with NS—NH2*. In order to clearly observe ESPT to a species other than OH^−(aq), added proton-accepting quenchers had to be more basic (ΔG^o<0), or slightly more acidic (ΔG^o>0), than NS—NH2*, and less basic than OH^−(aq). […] As pH values approach and pass the pKa of the proton-accepting quencher, the rate of ESPT slows from a decrease in the concentration of proton-accepting quencher due to its protonation. This is supported by observations from analogous experiments performed using different concentrations of quencher. Best fits of measured photoluminescence spectroscopy data to a modified Stern-Volmer equation for a two-quencher system, including both OH^−(aq) and proton-accepting quencher, provided bimolecular rate constants for deprotonation of the photoacid by each quencher,
where KSV,OH−=K*^−1b and KSV,quencher=k+q,quencherτo,PAH* are the dynamic quenching constants for excited-state proton transfer to OH^−(aq) and proton-accepting quencher, respectively, k+q,quencher is the bimolecular rate constant (M^−1 s^−1) for ESPT quenching by the proton-accepting quencher, and the sum of the activities of B and BH^+ is approximated as the total concentration of the proton-accepting quencher. While the pKa of the proton-accepting quencher is an adjustable parameter during best fitting, extracted pKa values are close to pKa values obtained from the acid-base titration curves of the proton-accepting quenchers. Changing the proton-accepting quencher to one with a smaller pKa value results in a slower non-diffusion-limited rate constant for ESPT with NS—NH2*. The observation of ESPT directly from NS—NH2* to each of two different amino acids, Gly and Pro, is notable, and may have important implications for biological systems where direct protonation of proteins can induce cellular responses.
Table 2 lists driving-force-dependent rate constants for direct excited-state proton transfer from NS—NH2* to various proton-accepting quenchers.
(§1) Several embodiments use the steady-state ultraviolet-visible electronic absorption and photoluminescence spectroscopy for characterization. Equal amounts of aromatic amine photoacids are portioned into five separate 100 mL volumetric flasks. For the non-proton-accepting quencher experiments, the five flasks are filled to the volumetric marker with aqueous solutions of 1 M HCl, 1 M KOH, 2 M KOH, 3 M KOH, and 4 M KOH. The aqueous 1 M KOH solution is titrated with the aqueous 1 M HCl solution to reach the desired pH values from 14 to 6, and the H^+ activities are measured using a pH meter (pH/Ion 510). […] Electronic absorption spectra and photoluminescence spectra are acquired using absorbance and fluorescence spectrometer(s), using a square-bottom quartz cuvette (1 cm path length) at room temperature. Electronic absorption spectra are baselined on a spectrum of deionized water and were corrected for scattering of light. Photoluminescence spectra are recorded by exciting with 310 nm light, slit widths for the excitation and emission monochromators were set to 5 nm, and the PMT detector voltage is set to 600 V. Photoluminescence spectra are corrected for changes in solution refractive index, inner filter effects and the wavelength-dependent correction factor of the fluorimeter.

[2] = Acid-base titration of aqueous photoacid with absorption and steady-state photoluminescence detection (Henderson-Hasselbalch / Stern-Volmer fits, OH− as quencher)
Text: FIGS. 2A through 2C illustrate acid-base titration of an aqueous solution of NS—NH2 photoacid with absorption and photoluminescence detection in accordance with an embodiment.
where aOH− is the activity of OH^−(aq), K*b pseudo is an erroneous observed equilibrium constant for base dissociation and KSV,OH− is the Stern-Volmer quenching constant, which is strictly dimensionless but reported here in units of M^−1 to be consistent with its typical usage. Unlike the Henderson-Hasselbalch equation, the Stern-Volmer equation is also applicable to non-equilibrium processes.
and KSV,OH−=k+q,OH−τo,PAH*, where τ is the excited-state lifetime (s) of NS—NH2* in the absence (τo,PAH*) or presence (τPAH*) of OH^− quencher and k+q,OH− is the bimolecular rate constant (M^−1 s^−1) for quenching of NS—NH2* by OH^− (forward direction of Reaction 1 with B=OH^−(aq)).
as §1, with “fluorimeter. For experiments that use non-OH^− proton-accepting quenchers, equal amounts of the quencher are added to the dry volumetric flask intended to form the acidic and basic aqueous photoacid solutions, to prevent changes in total quencher concentration during the titration, and titrations are performed similarly to those in the absence of added proton-accepting quenchers. Although the total quencher concentration is kept constant throughout the titration, the activity of the deprotonated quencher species varied as a function of solution pH according to Equation 3. Ionic strength is matched at the most alkaline pH values; however, it is experimentally difficult to maintain the same ionic strength throughout the titration. Normalized photoluminescence intensities as a function of solution pH are obtained by dividing the corrected photoluminescence intensities at the wavelength of maximum photoluminescence to the maximum corrected photoluminescence intensity at the same wavelength.” for “fluorimeter.”

[3] = Marcus-Cohen bond-energy-bond-order (BEBO) analysis of quenching rate constants; assay type: physicochemical
Text: Several embodiments provide accurate quantification of excited-state Brønsted-Lowry acidity and reorganization energy of weak photoacids using Marcus-Cohen bond-energy-bond-order (BEBO) theory. Data for this series of proton-accepting quenchers analyze the dependence of driving force on ESPT quenching rate constants and assess the validity of Marcus normal region behavior, as has been performed numerous times for excited-state electron transfer and proton-coupled electron transfer. Like excited-state electron-transfer quenching in polar solvents, ESPT is proposed to proceed through formation of an excited-state encounter complex between reactants prior to proton transfer, but unique to ESPT is dissociation of an excited-state encounter complex between products after proton transfer. […]
where ΔGEC,R^o, ΔGPT^oand −ΔGEC,P^o are the standard Gibbs free energy differences for the individual reaction steps in the excited-state proton-transfer reaction sequence. Kinetic data (Equation 8) and thermodynamic data (Equation 11) are analyzed using Marcus-Cohen bond-energy-bond-order (BEBO) theory, which is based on transition-state theory and results in the following relationship between ΔGPT^‡ and ΔGPT^o, […]

[4] = cited from earlier work
[5] = Stability of dye fluorescence near an operating gas diffusion electrode
[6] = proton acceptor, aqueous; cited from earlier work
[7] = cited from earlier work; remark: listed apart in the source
[8] = 1 M total trifluoroethanol present
[9] = quenching of NS—NH2*, 1 M total quencher

Compound: Nc1cccc2c(S(=O)(=O)[O-])cccc12.[Na+] [NS—NH2, 5-aminonaphthalene-1-sulfonic acid sodium salt]
- bimolecular rate constant, deprotonation of NS—NH2* by OH−(aq) ([1]; 0.17 M total phosphate present): (163±8)×10^8 M^−1 s^−1
- bimolecular rate constant, deprotonation of NS—NH2* by OH−(aq) ([1]; 1 M total glycine present): (43±1)×10^8 M^−1 s^−1
- bimolecular rate constant, deprotonation of NS—NH2* by OH−(aq) ([1]; 1 M total proline present): (47±2)×10^8 M^−1 s^−1
- bimolecular rate constant, deprotonation of NS—NH2* by OH−(aq) [1, 8]: (60±30)×10^8 M^−1 s^−1
- bimolecular rate constant, deprotonation of NS—NH2* by OH−(aq) ([1]; 2 M total glycine present): (38±2)×10^8 M^−1 s^−1
- KSV,OH− ([1]; 0.17 M total phosphate present): 37 ± 2 M⁻¹
- KSV,OH− ([1]; 1 M total glycine present): 20 ± 1 M⁻¹
- KSV,OH− ([1]; 1 M total proline present): 22 ± 1 M⁻¹
- KSV,OH− [1, 8]: 30 ± 10 M⁻¹
- KSV,OH− ([1]; 2 M total glycine present): 8.6 ± 0.4 M⁻¹
- pKa ([2]; aqueous solution, ground-state pKa, aromatic amine, aqueous): > 17
- KSV,τ,OH− (linearized Stern-Volmer) ([2]; lifetime data, linearized Stern-Volmer fit, OH−(aq) quencher): about 55±1 M^−1
- KSV,τ,OH− ([2]; lifetime data, non-linear Stern-Volmer fit, OH−(aq) quencher): about 54±6 M^−1
- bimolecular rate constant k+q,τ,OH− ([2]; lifetime data, forward direction of Reaction 1 with B=OH−(aq)): about (12±1)×10^9 M^−1 s^−1
- KSV,ss,OH− ([2]; steady-state photoluminescence, non-linear Stern-Volmer fit, OH−(aq) quencher): about 47±1 M^−1
- KSV,ss,OH− (linearized Stern-Volmer) ([2]; steady-state photoluminescence, traditional linearized Stern-Volmer fit, OH−(aq) quencher): about 46±1 M^−1
- ΔGo,PT‡ ([3]; Gibbs free energy of activation of proton-transfer step at ΔGPT°=0): 0.080±0.005 eV
- “true” pK*a ([3]; Marcus-Cohen BEBO analysis): 11.7±0.1

Compound: Oc1ccc2ccc3cccc4ccc1c2c34 [1-hydroxypyrene]
- ground state pKa [4]: about 9

Compound: O=S(=O)(O)c1cc(S(=O)(=O)O)c2ccc3c(O)cc(O)c4ccc1c2c43 [DHPDS, 6,8-dihydroxy-1,3-pyrenedisulfonic acid]
- pK*a ([4]; strong photoacid): ≈ 0
- fluorescent signal during GDE operation ([5]; cathodic current densities of 100 mA/cm^2 in magnitude, or larger): Some loss of fluorescent signal
- photoluminescence intensity during GDE operation ([5]; current density between 0 and −20 mA/cm^2): no significant decrease in photoluminescence intensity

Compound: O=C(O)[C@@H]1CCCN1 [Proline]
- Diffusion Coefficient [6]: 8.79 10^−6 cm^2/s
- bimolecular rate constant, deprotonation of NS—NH2* by the quencher ([1]; 1 M total quencher): (1.70±0.05)×10^8 M^−1 s^−1
- k+q,corr ([1]; corrected rate constant, ESPT from NS—NH2* to the proton acceptor): 7.11 ± 0.21 10^8 M^−1 s^−1
- k+q ([1]; direct excited-state proton transfer from NS—NH2* to the proton acceptor): 1.70 ± 0.05 10^8 M^−1 s^−1
- pKa ([1]; value after the slash): 10.8
- pKa ([1]; value before the slash): 10.7
- KSV,quencher (Equation 7) [1, 9]: 0.80 ± 0.02 M⁻¹
- KSV,quencher (traditional linearized Stern-Volmer) [1, 9]: 0.79 ± 0.01 M⁻¹
- pKa (physchem): 10.8
- pKa, literature value [7]: 10.5
